Some test systems named below: NCI-H23 lung; HL-60(TB) leukemia; NCI-H226 lung; MDA-MB-231 breast; ACHN renal; PC-3 prostate; 786-0 renal; NCI-H460 lung; SN12C renal; OVCAR-3 ovarian.
Assay in all cases: NCI anticancer screen, dose series, 48 h

Each structure is given as a SMILES string. Values joined by “and” are separate entries in the source; they are usually repeats but may differ in a detail not shown here. Identical values can stand only once.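 Tested at 5 concentrations; 48 h exposure; 96-well plates; endpoints linearly interpolated, else capped at highest concentration. At the GI50, growth is halved. At the TGI there is no net growth.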

This note sets out measurements from PubChem BioAssay (NCI).

`COc1cc(-c2nc(SCCC(C)C)nc(Nc3ccc(S(N)(=O)=O)cc3)c2C#N)cc(OC)c1OC`: the GI50 with NCI-H23 lung was 2.92 µM; with HL-60(TB) leukemia, 2.3 µM; in the assay with NCI-H226 lung it was 1.67 µM; in the assay on MDA-MB-231 breast, 2.19 µM; in the assay on ACHN renal, 2.79 µM; in the assay with PC-3 prostate, 2.72 µM. The GI50 in the assay with 786-0 renal was 2.16 µM; in the assay with NCI-H460 lung it was 2.8 µM; in the assay with SN12C renal, 1.81 µM; in the assay on OVCAR-3 ovarian, 2.38 µM. In addition, the TGI with NCI-H23 lung is 12.5 µM; in the assay on HL-60(TB) leukemia, 5.86 µM; in the assay with NCI-H226 lung, 4.64 µM; in the assay with MDA-MB-231 breast, 7.8 µM; in the assay on ACHN renal, over 100 µM; in the assay on PC-3 prostate it was over 100 µM. Further, the TGI is 4.87 µM with 786-0 renal, 8.45 µM in the assay with NCI-H460 lung, 3.51 µM in the assay on SN12C renal and 6.12 µM with OVCAR-3 ovarian.

As for `CCCCCCCc1cc2c3c(nc4ccccc42)C(=O)c2cccnc2-c3n1`, the GI50 is 10.8 µM with NCI-H23 lung; 1.42 µM in the assay with HL-60(TB) leukemia; 6.82 µM with NCI-H226 lung; 6.71 µM in the assay on MDA-MB-231 breast; 4.08 µM in the assay with ACHN renal; 4.39 µM with PC-3 prostate. Also, the GI50 was 5.1 µM in the assay on 786-0 renal, 1.05 µM with NCI-H460 lung, 4.81 µM in the assay with SN12C renal and 2.3 µM in the assay with OVCAR-3 ovarian. Further, the TGI was 25.6 µM in the assay with NCI-H23 lung; 16.3 µM in the assay on NCI-H226 lung; 20 µM in the assay on MDA-MB-231 breast; 8.19 µM in the assay on ACHN renal; 10.9 µM in the assay on PC-3 prostate; 10.5 µM in the assay with 786-0 renal. Further, the TGI in the assay on NCI-H460 lung stood at 3.1 µM; in the assay on SN12C renal it was 10.8 µM; in the assay with OVCAR-3 ovarian, 8.97 µM.

As for `O=C1C[C@@H]2/C(=C(O)\C=C\c3ccccc3)C(=O)C=C[C@@H]2O1`, the GI50 was 1.78 µM with NCI-H23 lung; 1.57 µM in the assay with HL-60(TB) leukemia; 1.94 µM in the assay with NCI-H226 lung; 2.13 µM in the assay with MDA-MB-231 breast; 1.56 µM in the assay on ACHN renal; 1.95 µM in the assay on PC-3 prostate. The GI50 is 1.74 µM in the assay on 786-0 renal, 2.23 µM in the assay with NCI-H460 lung, 2.15 µM in the assay on SN12C renal and 0.497 µM with OVCAR-3 ovarian. Moreover, the TGI in the assay on NCI-H23 lung is 3.95 µM; with HL-60(TB) leukemia it was 5.93 µM; with NCI-H226 lung, 4.45 µM; in the assay with MDA-MB-231 breast it was 4.21 µM; in the assay with ACHN renal, 3.29 µM; with PC-3 prostate, 4.9 µM. Moreover, the TGI in the assay on 786-0 renal was found to be 3.49 µM; in the assay with NCI-H460 lung, 7.18 µM; in the assay with SN12C renal, 5.64 µM; with OVCAR-3 ovarian, 1.82 µM.

For `NCCCNCCCCNC(=O)C(O)NC(=O)CCCCCCN=C(N)N` (stereo unspecified), the GI50 in the assay with NCI-H23 lung is 2330 µM; with HL-60(TB) leukemia, 2500 µM; with NCI-H226 lung it was 2430 µM; with MDA-MB-231 breast, over 2570 µM; in the assay on ACHN renal, 2750 µM; in the assay with PC-3 prostate, 1590 µM. Besides, the GI50 is over 750 µM with 786-0 renal, over 2770 µM in the assay on NCI-H460 lung, 2040 µM in the assay on SN12C renal and 1750 µM in the assay with OVCAR-3 ovarian. Also, the TGI is 750 µM and > 5000 µM in the assay with NCI-H23 lung; over 4090 µM in the assay with HL-60(TB) leukemia; 750 µM and > 5000 µM with NCI-H226 lung; over 5000 µM in the assay on MDA-MB-231 breast; over 5000 µM in the assay with ACHN renal; over 5000 µM in the assay on PC-3 prostate. Moreover, the TGI was over 5000 µM with 786-0 renal; 750 µM and > 5000 µM in the assay on NCI-H460 lung; over 5000 µM with SN12C renal; 750 µM and > 5000 µM in the assay with OVCAR-3 ovarian.

Consider `Cc1cc(C)c(-n2c(-c3ccc(Br)cc3)cs/c2=N\N=C2C=C(C(C)(C)C)C(=O)C(C(C)(C)C)=C2)c(C)c1`, for which the TGI in the assay on NCI-H23 lung, in the assay with HL-60(TB) leukemia, with NCI-H226 lung, with MDA-MB-231 breast, in the assay with ACHN renal and with PC-3 prostate was over 100 µM in each case. The TGI in the assay with 786-0 renal, in the assay with NCI-H460 lung, with SN12C renal and in the assay with OVCAR-3 ovarian was over 100 µM throughout.

Consider `COc1ccc(-c2ccc(-c3ccc(C(=N)N)o3)o2)cc1`, for which the GI50 is 4.34 µM with NCI-H23 lung; 1.23 µM in the assay with HL-60(TB) leukemia; 22 µM in the assay on NCI-H226 lung; 1.9 µM in the assay on MDA-MB-231 breast; 1.8 µM in the assay on ACHN renal; 1.86 µM with PC-3 prostate. The GI50 in the assay on 786-0 renal was 2.22 µM; in the assay with NCI-H460 lung it was 1.17 µM; in the assay with SN12C renal, 2.02 µM; with OVCAR-3 ovarian, 0.924 µM. The TGI with NCI-H23 lung stood at 18.3 µM; with HL-60(TB) leukemia it was 3.16 µM; in the assay on NCI-H226 lung, 42.8 µM; in the assay with MDA-MB-231 breast, 4.28 µM; with ACHN renal, 4.2 µM; in the assay with PC-3 prostate it was 7.07 µM. In addition, the TGI in the assay with 786-0 renal is 5.64 µM; with NCI-H460 lung it was 3.28 µM; in the assay with SN12C renal, 4.59 µM; in the assay with OVCAR-3 ovarian, 2.74 µM.

Take `COc1ccc2c(c1)C(=O)c1c-2n(CCCI)c(=O)c2cc([N+](=O)[O-])ccc12`: the GI50 in the assay on NCI-H23 lung is 0.16 µM and 0.119 µM; in the assay with HL-60(TB) leukemia, 0.167 µM and 0.0526 µM; with NCI-H226 lung, 0.671 µM and 0.89 µM; with MDA-MB-231 breast, 12.9 µM and 22.9 µM; in the assay on ACHN renal, 0.138 µM and 0.0293 µM; with PC-3 prostate, 0.279 µM and 1.42 µM. The GI50 with 786-0 renal was 0.106 µM and 0.0522 µM; with NCI-H460 lung, 0.0117 µM and 0.0296 µM; in the assay on SN12C renal it was 0.105 µM and 0.312 µM; in the assay with OVCAR-3 ovarian, 1.08 µM and 2.99 µM. The TGI was 0.988 µM and 1.27 µM in the assay with NCI-H23 lung; 2.26 µM and 0.822 µM with HL-60(TB) leukemia; 6.02 µM and 14.7 µM with NCI-H226 lung; 50 µM and > 100 µM with MDA-MB-231 breast; 1.03 µM and 0.239 µM with ACHN renal; 30.4 µM and > 100 µM in the assay with PC-3 prostate. Further, the TGI in the assay with OVCAR-3 ovarian is 19.4 µM and 20.1 µM.

Regarding `CC1(C)CCC[C@]2(C)[C@H]3[C@H](C#N)c4cc(O)c(O)cc4O[C@@]3(C)CC[C@@H]12`, the TGI in the assay with NCI-H23 lung, in the assay on HL-60(TB) leukemia, in the assay on NCI-H226 lung, in the assay on MDA-MB-231 breast, in the assay with ACHN renal and with PC-3 prostate was over 10 µM throughout. In addition, the TGI with 786-0 renal, with NCI-H460 lung, in the assay with SN12C renal and with OVCAR-3 ovarian was over 10 µM in each case.

With `Cc1cccc(NC(=O)c2cccc([N+](=O)[O-])c2O)c1C`, the TGI in the assay with NCI-H23 lung was 62.9 µM; in the assay with HL-60(TB) leukemia it was 22.1 µM; in the assay with NCI-H226 lung, over 87.7 µM; with MDA-MB-231 breast, over 100 µM; in the assay with ACHN renal, over 100 µM; with PC-3 prostate it was over 100 µM. Also, the TGI with 786-0 renal was over 100 µM; in the assay on NCI-H460 lung, over 69.6 µM; in the assay on SN12C renal, over 100 µM; with OVCAR-3 ovarian it was over 100 µM.
